Reference: patent publication US10799496B2, “Naphthylenyl compounds for long-acting injectable compositions and related methods” (priority 2018, dated 2020)

Experiments:
[1] = Pharmacokinetic evaluation of the release of naltrexone from Compound 2 in rats following a single intramuscular injection; type: in vivo, Sprague-Dawley rats; settings: for Compound 2 conc.: rat plasma
Procedure: Five male Sprague-Dawley rats were allowed to acclimate to the test facility for at least 2 days prior to study start. For dose administration of Compound 2, the rats were lightly anesthetized with isofluorane, the hind leg shaved and dosed intramuscularly with the formulation using a 21G needle. […] Serial whole blood samples were collected via sublingual route (˜150 μL) at 1, 8, and 24 hours post dose, and at 2, 4, 7, 10, 14, 17, 21, 24, 28, 35, 42, 49, 56, 63, 71, 78, 85, and 91 days post dose.
Blood samples were placed into K2EDTA blood collection tubes. After collection, blood samples were maintained chilled (on wet ice) and centrifuged (11,500 rpm for 2 minutes at 5 degrees C.) within 30 minutes to obtain plasma. Plasma was transferred into a single vial, 1.5 mL screw cap micro-centrifuge tube with inserts and stored at −80 degrees C. until analysis.
The formulation dosed was a crystalline suspension of Compound 2 (46 milligrams of Compound 2 dosed per animal), wherein the crystalline test article was characterized with a particle size distribution of Dv10=12.9 μm, Dv50=31.5 μm, and Dv90=63.1 μm (as measured via laser diffraction). The formulation was prepared the day before dosing. Details of the formulation dosed are described in Table D below.
Results of the above intramuscular rat study of Compound 2 are shown in Tables E and F. In particular, Table E reports the average blood plasma levels of naltrexone in rat (n=5) over 91 days following intramuscular administration.

[2] = Whole blood stability assay; type: in vitro ADME; settings: prodrug 50 nM, fresh pooled human whole blood, 37 degrees C.; read-out: t1/2 at 37 degrees C. in human whole blood
Procedure: Naltrexone prodrug stability was assessed using freshly collected whole blood (within 24-hr collection) from pooled human (n=3) donors. The incubation mixtures were prepared by spiking the prodrugs into pre-warmed (37 degrees C.) fresh whole blood to a final concentration of 50 nM. After gentle mixing, aliquots of incubation mixtures were immediately transferred into four different 96-deep well plates. One plate was used for each time point. The plates were incubated at 37 degrees C. at a shaking speed of 100 rpm. At time points 15, 30, 60 and 120 minutes, the reaction was quenched by addition of a mixture of water and acetonitrile containing the internal standard (naltrexone-D3). Time point 0 minutes was prepared separately by spiking the prodrugs into a quenched whole blood to obtain a final concentration of 50 nM. All samples were vortexed at a low speed for 15 min and centrifuged at 3900 rpm for 15 min. Supernatants were transferred into 96-well plates for LC-MS/MS analysis to monitor the depletion of the prodrugs and the formation of naltrexone.
The amount of remaining prodrug and released naltrexone for each sample was quantitated against the calibration curves prepared with the whole blood. The human whole blood was purchased from BioreclamationIVT (Westbury, N.Y., USA). Naltrexone-D3 was purchased from CERILLIANT® (Round Rock, Tex., USA). […] Where multiple runs have been completed, average values are reported.

## O=C(Cc1ccc2cc(CC(=O)Oc3ccc4c5c3O[C@H]3C(=O)CC[C@@]6(O)[C@@H](C4)N(CC4CC4)CC[C@]536)ccc2c1)Oc1ccc2c3c1O[C@H]1C(=O)CC[C@@]4(O)[C@@H](C2)N(CC2CC2)CC[C@]314 [Compound 2, bis((4R,4aS,7aR,12bS)-3-(cyclopropylmethyl)-4a-hydroxy-7-oxo-2,3,4,4a,5,6,7,7a-octahydro-1H-4,12-methanobenzofuro[3,2-e]isoquinolin-9-yl) 2,2′-(naphthalene-2,6-diyl)diacetate]
[1]; single i.m. dose of Compound 2, day 0.042 (1 hr), Rat 1
  Compound 2 conc.: 0.223 ng/mL
[1]; single i.m. dose of Compound 2, day 0.042 (1 hr), Rat 2
  Compound 2 conc.: 0.112 ng/mL
[1]; single i.m. dose of Compound 2, day 0.042 (1 hr), Rat 3
  Compound 2 conc.: <0.1 ng/mL
[1]; single i.m. dose of Compound 2, day 0.042 (1 hr), Rat 4
  Compound 2 conc.: 0.131 ng/mL
[1]; single i.m. dose of Compound 2, day 0.042 (1 hr), Rat 5
  Compound 2 conc.: 0.113 ng/mL
[1]; single i.m. dose of Compound 2, day 0.33 (8 hr), Rat 1
  Compound 2 conc.: <0.1 ng/mL
[1]; single i.m. dose of Compound 2, day 0.33 (8 hr), Rat 2
  Compound 2 conc.: <0.1 ng/mL
[1]; single i.m. dose of Compound 2, day 0.33 (8 hr), Rat 3
  Compound 2 conc.: <0.1 ng/mL
[1]; single i.m. dose of Compound 2, day 0.33 (8 hr), Rat 4
  Compound 2 conc.: <0.1 ng/mL
[1]; single i.m. dose of Compound 2, day 0.33 (8 hr), Rat 5
  Compound 2 conc.: <0.1 ng/mL
[1]; single i.m. dose of Compound 2, day 1, Rat 1
  Compound 2 conc.: <0.1 ng/mL
[1]; single i.m. dose of Compound 2, day 1, Rat 2
  Compound 2 conc.: <0.1 ng/mL
[1]; single i.m. dose of Compound 2, day 1, Rat 3
  Compound 2 conc.: <0.1 ng/mL
[1]; single i.m. dose of Compound 2, day 1, Rat 4
  Compound 2 conc.: <0.1 ng/mL
[1]; single i.m. dose of Compound 2, day 1, Rat 5
  Compound 2 conc.: <0.1 ng/mL
[1]; single i.m. dose of Compound 2, day 2, Rat 1
  Compound 2 conc.: <0.1 ng/mL
[1]; single i.m. dose of Compound 2, day 2, Rat 2
  Compound 2 conc.: <0.1 ng/mL
[1]; single i.m. dose of Compound 2, day 2, Rat 3
  Compound 2 conc.: <0.1 ng/mL
[1]; single i.m. dose of Compound 2, day 2, Rat 4
  Compound 2 conc.: <0.1 ng/mL
[1]; single i.m. dose of Compound 2, day 2, Rat 5
  Compound 2 conc.: <0.1 ng/mL
[1]; single i.m. dose of Compound 2, day 7, Rat 1
  Compound 2 conc.: <0.1 ng/mL
[1]; single i.m. dose of Compound 2, day 7, Rat 2
  Compound 2 conc.: <0.1 ng/mL
[1]; single i.m. dose of Compound 2, day 7, Rat 3
  Compound 2 conc.: 0.175 ng/mL
[1]; single i.m. dose of Compound 2, day 7, Rat 4
  Compound 2 conc.: <0.1 ng/mL
[1]; single i.m. dose of Compound 2, day 7, Rat 5
  Compound 2 conc.: <0.1 ng/mL
[1]; single i.m. dose of Compound 2, day 10, Rat 1
  Compound 2 conc.: 0.111 ng/mL
[1]; single i.m. dose of Compound 2, day 10, Rat 2
  Compound 2 conc.: <0.1 ng/mL
[1]; single i.m. dose of Compound 2, day 10, Rat 3
  Compound 2 conc.: 0.104 ng/mL
[1]; single i.m. dose of Compound 2, day 10, Rat 4
  Compound 2 conc.: 0.119 ng/mL
[1]; single i.m. dose of Compound 2, day 10, Rat 5
  Compound 2 conc.: <0.1 ng/mL
[1]; single i.m. dose of Compound 2, day 14, Rat 1
  Compound 2 conc.: 0.119 ng/mL
[1]; single i.m. dose of Compound 2, day 14, Rat 2
  Compound 2 conc.: 0.135 ng/mL
[1]; single i.m. dose of Compound 2, day 14, Rat 3
  Compound 2 conc.: <0.1 ng/mL
[1]; single i.m. dose of Compound 2, day 14, Rat 4
  Compound 2 conc.: 0.144 ng/mL
[1]; single i.m. dose of Compound 2, day 14, Rat 5
  Compound 2 conc.: 0.136 ng/mL
[1]; single i.m. dose of Compound 2, day 17, Rat 1
  Compound 2 conc.: <0.1 ng/mL
[1]; single i.m. dose of Compound 2, day 17, Rat 2
  Compound 2 conc.: <0.1 ng/mL
[1]; single i.m. dose of Compound 2, day 17, Rat 3
  Compound 2 conc.: <0.1 ng/mL
[1]; single i.m. dose of Compound 2, day 17, Rat 4
  Compound 2 conc.: <0.1 ng/mL
[1]; single i.m. dose of Compound 2, day 17, Rat 5
  Compound 2 conc.: <0.1 ng/mL
[1]; single i.m. dose of Compound 2, day 21, Rat 1
  Compound 2 conc.: <0.1 ng/mL
[1]; single i.m. dose of Compound 2, day 21, Rat 2
  Compound 2 conc.: <0.1 ng/mL
[1]; single i.m. dose of Compound 2, day 21, Rat 3
  Compound 2 conc.: <0.1 ng/mL
[1]; single i.m. dose of Compound 2, day 21, Rat 4
  Compound 2 conc.: <0.1 ng/mL
[1]; single i.m. dose of Compound 2, day 21, Rat 5
  Compound 2 conc.: 3.25 ng/mL
[1]; single i.m. dose of Compound 2, day 24, Rat 1
  Compound 2 conc.: 0.198 ng/mL
[1]; single i.m. dose of Compound 2, day 24, Rat 2
  Compound 2 conc.: 0.177 ng/mL
[1]; single i.m. dose of Compound 2, day 24, Rat 3
  Compound 2 conc.: 0.217 ng/mL
[1]; single i.m. dose of Compound 2, day 24, Rat 4
  Compound 2 conc.: 0.170 ng/mL
[1]; single i.m. dose of Compound 2, day 24, Rat 5
  Compound 2 conc.: 0.280 ng/mL
[1]; single i.m. dose of Compound 2, day 28, Rat 1
  Compound 2 conc.: 0.236 ng/mL
[1]; single i.m. dose of Compound 2, day 28, Rat 2
  Compound 2 conc.: 0.193 ng/mL
[1]; single i.m. dose of Compound 2, day 28, Rat 3
  Compound 2 conc.: 0.205 ng/mL
[1]; single i.m. dose of Compound 2, day 28, Rat 4
  Compound 2 conc.: 0.176 ng/mL
[1]; single i.m. dose of Compound 2, day 28, Rat 5
  Compound 2 conc.: 0.111 ng/mL
[1]; single i.m. dose of Compound 2, day 35, Rat 1
  Compound 2 conc.: 0.165 ng/mL
[1]; single i.m. dose of Compound 2, day 35, Rat 2
  Compound 2 conc.: 0.439 ng/mL
[1]; single i.m. dose of Compound 2, day 35, Rat 3
  Compound 2 conc.: 0.350 ng/mL
[1]; single i.m. dose of Compound 2, day 35, Rat 4
  Compound 2 conc.: 0.265 ng/mL
[1]; single i.m. dose of Compound 2, day 35, Rat 5
  Compound 2 conc.: 0.152 ng/mL
[1]; single i.m. dose of Compound 2, day 42, Rat 1
  Compound 2 conc.: 0.155 ng/mL
[1]; single i.m. dose of Compound 2, day 42, Rat 2
  Compound 2 conc.: 0.156 ng/mL
[1]; single i.m. dose of Compound 2, day 42, Rat 3
  Compound 2 conc.: 0.212 ng/mL
[1]; single i.m. dose of Compound 2, day 42, Rat 4
  Compound 2 conc.: 0.199 ng/mL
[1]; single i.m. dose of Compound 2, day 42, Rat 5
  Compound 2 conc.: 0.205 ng/mL
[1]; single i.m. dose of Compound 2, day 49, Rat 1
  Compound 2 conc.: <0.1 ng/mL
[1]; single i.m. dose of Compound 2, day 49, Rat 2
  Compound 2 conc.: <0.1 ng/mL
[1]; single i.m. dose of Compound 2, day 49, Rat 3
  Compound 2 conc.: <0.1 ng/mL
[1]; single i.m. dose of Compound 2, day 49, Rat 4
  Compound 2 conc.: <0.1 ng/mL
[1]; single i.m. dose of Compound 2, day 49, Rat 5
  Compound 2 conc.: <0.1 ng/mL
[1]; single i.m. dose of Compound 2, day 56, Rat 1
  Compound 2 conc.: 0.358 ng/mL
[1]; single i.m. dose of Compound 2, day 56, Rat 2
  Compound 2 conc.: 0.205 ng/mL
[1]; single i.m. dose of Compound 2, day 56, Rat 3
  Compound 2 conc.: 0.105 ng/mL
[1]; single i.m. dose of Compound 2, day 56, Rat 4
  Compound 2 conc.: 0.170 ng/mL
[1]; single i.m. dose of Compound 2, day 56, Rat 5
  Compound 2 conc.: 0.163 ng/mL
[1]; single i.m. dose of Compound 2, day 63, Rat 1
  Compound 2 conc.: <0.1 ng/mL
[1]; single i.m. dose of Compound 2, day 63, Rat 2
  Compound 2 conc.: <0.1 ng/mL
[1]; single i.m. dose of Compound 2, day 63, Rat 3
  Compound 2 conc.: <0.1 ng/mL
[1]; single i.m. dose of Compound 2, day 63, Rat 4
  Compound 2 conc.: 0.142 ng/mL
[1]; single i.m. dose of Compound 2, day 63, Rat 5
  Compound 2 conc.: <0.1 ng/mL
[1]; single i.m. dose of Compound 2, day 71, Rat 1
  Compound 2 conc.: <0.1 ng/mL
[1]; single i.m. dose of Compound 2, day 71, Rat 2
  Compound 2 conc.: <0.1 ng/mL
[1]; single i.m. dose of Compound 2, day 71, Rat 3
  Compound 2 conc.: <0.1 ng/mL
[1]; single i.m. dose of Compound 2, day 71, Rat 4
  Compound 2 conc.: <0.1 ng/mL
[1]; single i.m. dose of Compound 2, day 71, Rat 5
  Compound 2 conc.: <0.1 ng/mL
[1]; single i.m. dose of Compound 2, day 78, Rat 1
  Compound 2 conc.: <0.1 ng/mL
[1]; single i.m. dose of Compound 2, day 78, Rat 2
  Compound 2 conc.: <0.1 ng/mL
[1]; single i.m. dose of Compound 2, day 78, Rat 3
  Compound 2 conc.: <0.1 ng/mL
[1]; single i.m. dose of Compound 2, day 78, Rat 4
  Compound 2 conc.: <0.1 ng/mL
[1]; single i.m. dose of Compound 2, day 78, Rat 5
  Compound 2 conc.: <0.1 ng/mL
[1]; single i.m. dose of Compound 2, day 85, Rat 1
  Compound 2 conc.: <0.1 ng/mL
[1]; single i.m. dose of Compound 2, day 85, Rat 2
  Compound 2 conc.: <0.1 ng/mL
[1]; single i.m. dose of Compound 2, day 85, Rat 3
  Compound 2 conc.: <0.1 ng/mL
[1]; single i.m. dose of Compound 2, day 85, Rat 4
  Compound 2 conc.: <0.1 ng/mL
[1]; single i.m. dose of Compound 2, day 85, Rat 5
  Compound 2 conc.: <0.1 ng/mL
[1]; single i.m. dose of Compound 2, day 91, Rat 1
  Compound 2 conc.: <0.1 ng/mL
[1]; single i.m. dose of Compound 2, day 91, Rat 2
  Compound 2 conc.: <0.1 ng/mL
[1]; single i.m. dose of Compound 2, day 91, Rat 3
  Compound 2 conc.: <0.1 ng/mL
[1]; single i.m. dose of Compound 2, day 91, Rat 4
  Compound 2 conc.: <0.1 ng/mL
[1]; single i.m. dose of Compound 2, day 91, Rat 5
  Compound 2 conc.: <0.1 ng/mL
[1]; rat, single i.m. dose of Compound 2, over 91 days
  plasma concentrations of parent Compound 2 and the resultant intermediate: generally low to not measurable
[1]; rat, single i.m. dose, over 91 days
  conversion of Compound 2 in rats to naltrexone: efficient conversion
[2]
  half-life at 50 nM: 20.9 min
